# Results reported in patent US9085575B2, “Tri- and tetracyclic pyrazolo[3,4-B]pyridine compounds as antineoplastic agent” (PIERRE FABRE MEDICAMENT, priority 2011, dated 2015).
# Read-outs that look alike come from different tables or passages of the source.
# Experiments:
# ALK = ALK (Homo sapiens, UniProt Q9UM73); assay: Test for measurement of ALK inhibition (ELISA, GST-PLCγ1 substrate, luminescence); format: biochemical
# Description: Test for Measurement of ALK Inhibition
# A ViewPlate microplate (Packard) is incubated with 0.1 mg/ml GST-PLCγ1 substrate (purified recombinant form) in phosphate buffer (PBS, pH 7.4) (100 μl/well) for one hour under stirring. The plate is then saturated with blocking solution comprising 5% bovine serum albumin (BSA) (Sigma) in PBS buffer, pH 7.4.
# After having added the inhibitor at the desired final concentration (typical range between 30 μM and 10 nM), the reaction is carried out by adding 180 ng/ml ALK to a reaction buffer comprised of 13 mM Tris, pH 7.5 (Sigma); 6.5 mM MgCl2 (Merck); 0.65 mM dithiothreitol (DTT) (Acros); 39 mM sodium β-glycerophosphate (TCI); 0.65 mM sodium orthovanadate (Sigma); and 250 μM ATP (Sigma). Incubation is carried out for 30 minutes at 30° C. under stirring.
# After three washings under stirring in 0.1% PBS/Tween-20 buffer (Sigma), an anti-phosphotyrosine antibody, coupled with HRP (UBI) diluted to 1/1000 in 5 mg/ml PBS/BSA buffer, is incubated for one hour with stirring. After three new washings in 0.1% PBS/Tween-20, the wells are incubated for two minutes with 100 μl of SuperSignal ELISA mixture (Pierce).
# The signal is read in luminescence mode using a luminometer (SpectraMax M5e, Molecular Devices).
# Karpas 299 cells = assay: Test for measurement of cell proliferation inhibition (Karpas 299), ATPlite; format: cell-based; details: Homo sapiens, Karpas 299 cell line, 72 hours
# Description: Test for Measurement of Cell Prolifearation Inhibition (Karpas 299)
# The antiproliferative activity of the compounds according to the invention has been measured by the ATPlite technique (Perkin Ekmer).
# Human cells of non-adherent anaplasic large cell lymphoma (Karpas 299) are seeded in 96-well plates (300,000 cells/ml) on day 1, at a concentration compatible with a logarithmic growth for 72 hours necessary for the evaluation of the compounds according to the invention. All the cells are treated on day 1 and then placed in an incubator at 37° C., under a 5% CO2 atmosphere. Cell viability is evaluated on day 4 by dosing the emitted ATP, which is a characteristic of viable cells. IC50s are determined by a non linear regression based on a sigmoidal model of dose/response relationship, the Hill coefficient being let variable, performed with the GraphPad software according to the algorithm provided.
# [1] = enzymatic IC50 on ALK, 250 μM ATP, class symbols, read-out: IC50 (ALK)
# [2] = comparative tests, read-out: Alk enzymatic inhibition (IC50)
# Sequence of ALK (Q9UM73 19-1620): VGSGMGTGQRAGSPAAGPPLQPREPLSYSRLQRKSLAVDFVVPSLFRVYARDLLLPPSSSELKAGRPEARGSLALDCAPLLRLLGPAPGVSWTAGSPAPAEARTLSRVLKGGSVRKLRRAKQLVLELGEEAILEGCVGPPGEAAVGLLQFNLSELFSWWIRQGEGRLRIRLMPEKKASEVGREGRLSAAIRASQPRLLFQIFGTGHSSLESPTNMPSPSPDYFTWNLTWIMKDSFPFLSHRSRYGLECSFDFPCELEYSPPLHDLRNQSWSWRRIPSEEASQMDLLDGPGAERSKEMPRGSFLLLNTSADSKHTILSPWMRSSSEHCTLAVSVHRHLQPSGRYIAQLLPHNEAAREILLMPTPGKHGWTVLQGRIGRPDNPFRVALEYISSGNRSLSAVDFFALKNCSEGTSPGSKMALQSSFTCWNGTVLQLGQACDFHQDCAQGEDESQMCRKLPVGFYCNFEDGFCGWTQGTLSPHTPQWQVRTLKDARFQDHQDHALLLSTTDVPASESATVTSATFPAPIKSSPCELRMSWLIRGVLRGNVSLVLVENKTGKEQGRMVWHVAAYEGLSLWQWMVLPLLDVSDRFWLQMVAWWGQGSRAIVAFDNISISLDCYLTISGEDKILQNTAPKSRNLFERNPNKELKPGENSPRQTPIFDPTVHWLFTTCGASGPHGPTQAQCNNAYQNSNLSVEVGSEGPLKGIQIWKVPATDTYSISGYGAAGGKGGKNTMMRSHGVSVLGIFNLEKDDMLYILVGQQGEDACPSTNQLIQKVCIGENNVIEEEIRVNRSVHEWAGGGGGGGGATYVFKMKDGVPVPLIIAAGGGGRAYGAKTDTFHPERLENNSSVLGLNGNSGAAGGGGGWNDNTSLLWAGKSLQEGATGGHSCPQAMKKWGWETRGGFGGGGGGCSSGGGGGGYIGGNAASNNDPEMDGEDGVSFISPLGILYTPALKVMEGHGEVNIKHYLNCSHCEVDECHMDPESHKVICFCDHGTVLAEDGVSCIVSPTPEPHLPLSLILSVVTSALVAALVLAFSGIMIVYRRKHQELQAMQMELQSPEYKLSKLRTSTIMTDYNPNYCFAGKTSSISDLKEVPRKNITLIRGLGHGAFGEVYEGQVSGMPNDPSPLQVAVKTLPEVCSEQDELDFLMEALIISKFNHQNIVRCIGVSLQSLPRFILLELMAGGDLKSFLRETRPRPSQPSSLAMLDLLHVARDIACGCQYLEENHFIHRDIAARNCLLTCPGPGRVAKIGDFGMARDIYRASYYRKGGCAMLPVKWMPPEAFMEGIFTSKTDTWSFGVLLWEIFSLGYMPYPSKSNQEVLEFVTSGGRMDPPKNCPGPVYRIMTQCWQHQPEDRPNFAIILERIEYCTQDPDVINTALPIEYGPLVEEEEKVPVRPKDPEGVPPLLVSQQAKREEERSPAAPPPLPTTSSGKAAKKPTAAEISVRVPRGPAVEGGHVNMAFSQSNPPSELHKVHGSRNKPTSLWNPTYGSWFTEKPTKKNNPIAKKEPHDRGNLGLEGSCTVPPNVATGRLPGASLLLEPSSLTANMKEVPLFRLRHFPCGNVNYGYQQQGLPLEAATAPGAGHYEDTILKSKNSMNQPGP
IC50 (ALK; [1]) [nM],IC50 (Karpas 299 cells) [nM],IC50 (ALK; [2]) [nM],SMILES
< 100,–,–,CCn1c(=O)c2c(-c3ccc(O)cc3)nc3[nH]nc(N)c3c2c2ccc(N3CCNCC3)cc21 [Compound 37]
< 100,–,–,CC(=O)Nc1n[nH]c2nc(-c3ccc(O)cc3)c3c(=O)[nH]c4ccccc4c3c12 [Compound 23]
–,4040,70,"Cc1n[nH]c2nc(-c3ccc(O)cc3)c3ccccc3c12 [Comparative compound 98, reference compound]"
1000 to 10000,–,–,Nc1n[nH]c2nc(-c3ccc(O)cc3)c3c(=O)[nH]ccc3c12 [Compound 39]
< 100,–,–,Nc1n[nH]c2nc(-c3ccc(O)cc3)c3c(=O)n(O)c4ccccc4c3c12 [Compound 42]
< 100,–,–,Nc1n[nH]c2nc(-c3ccc(O)cc3)c3c(=O)[nH]c4ccc(N5CCNCC5)cc4c3c12 [Compound 25]
100 to 1000,–,–,Cc1n[nH]c2nc(-c3ccc(O)cc3)c3c(=O)oc4ccccc4c3c12 [Compound 09]
< 100,–,–,Cc1n[nH]c2nc(-c3ccc(O)cc3)c3c(c12)CCNC3=O [Compound 53]
< 100,–,–,Nc1n[nH]c2nc(-c3ccc(O)cc3F)c3c(=O)[nH]c4ccccc4c3c12 [Compound 38]
100 to 1000,–,–,Cc1n[nH]c2nc(-c3ccc(O)cc3)c3c(=O)oc(-c4ccccc4)cc3c12 [Compound 28]
–,1000,35,Cc1n[nH]c2nc(-c3ccc(O)cc3)c3cnc4ccccc4c3c12 [Compound 06]
< 100,168,2.5,Cc1n[nH]c2nc(-c3ccc(O)cc3)c3c(=O)[nH]c4ccccc4c3c12 [Compound 02]
< 100,–,–,Nc1n[nH]c2nc(-c3ccc(O)cc3)c3c(=O)[nH]c4ccccc4c3c12 [Compound 24]
1000 to 10000,–,–,CCn1ccc2c(c(-c3ccc(O)cc3)nc3[nH]nc(C)c32)c1=O [Compound 44]
< 100,–,–,Nc1n[nH]c2nc(-c3ccc(O)cc3)c3c(=O)[nH]c4cc(N5CCNCC5)ccc4c3c12 [Compound 32]
1000 to 10000,–,–,Cc1n[nH]c2nc(-c3ccc(O)cc3)c3c(=O)[nH]ccc3c12 [Compound 35]

# Second part, the compound before the results:
SMILES,IC50 (ALK; [1]) [nM],IC50 (Karpas 299 cells) [nM],IC50 (ALK; [2]) [nM]
O=c1[nH]c2ccccc2c2c1c(-c1ccc(O)cc1)nc1[nH]nc(-c3ccc(N4CCNCC4)cc3)c12 [Compound 05],< 100,–,–
Cc1n[nH]c2nc(-c3ccc(O)cc3)c3c(=O)n(CCCN4CCN(C)CC4)c4ccccc4c3c12 [Compound 10],< 100,–,–
CCn1c(=O)c2c(-c3ccc(O)cc3)nc3[nH]nc(C)c3c2c2ccc(N3CCNCC3)cc21 [Compound 20],< 100,–,–
Cc1n[nH]c2nc(-c3ccc(O)cc3)c3c(=O)n(CCCN(C)C)c4cc(N5CCNCC5)ccc4c3c12 [Compound 12],< 100,–,–
Cc1n[nH]c2nc(-c3cc(O)cc(F)c3)c3c(=O)[nH]c4cc(N5CCNCC5)ccc4c3c12 [Compound 30],< 100,–,–
CCn1c(=O)c2c(-c3ccc(O)c(C(F)(F)F)c3)nc3[nH]nc(C)c3c2c2ccc(N3CCNCC3)cc21 [Compound 46],< 100,–,–
Cc1n[nH]c2nc(-c3ccc(O)cc3)c3c(=O)[nH]c4cc(N5CC[C@@H](N)C5)ccc4c3c12 [Compound 11],< 100,–,–
Cc1n[nH]c2nc(-c3ccc(O)c(C(F)(F)F)c3)c3c(=O)[nH]c4cc(N5CCNCC5)ccc4c3c12 [Compound 41],100 to 1000,–,–
CN1CCN(c2ccc(C(=O)Nc3n[nH]c4nc(-c5ccc(O)cc5)c5c(=O)[nH]c6ccccc6c5c34)cc2)CC1 [Compound 52],< 100,–,–
CCOc1ccc(-c2nc3[nH]nc(C)c3c3c2c(=O)[nH]c2cc(N4CCNCC4)ccc23)cc1 [Compound 19],< 100,–,–
CCn1cc(-c2ccc(N3CCNCC3)cc2)c2c(c(-c3ccc(O)cc3)nc3[nH]nc(N)c32)c1=O [Compound 54],1000 to 10000,–,–
Cc1n[nH]c2nc(-c3ccc(O)c(C(=O)O)c3)c3c(=O)[nH]c4cc(N5CCNCC5)ccc4c3c12 [Compound 27],1000 to 10000,–,–
CCOc1cc(F)cc(-c2nc3[nH]nc(C)c3c3c2c(=O)n(CC)c2cc(N4CCNCC4)ccc32)c1 [Compound 33],< 100,–,–
Cc1n[nH]c2nc(-c3ccc(O)cc3)c3c(=O)n(CCN4CCNCC4)c4ccccc4c3c12 [Compound 15],100 to 1000,–,–
Cc1cc2c(o1)-c1c(c(-c3ccc(O)cc3)nc3[nH]nc(C)c13)C2=O [Compound 01],< 100,–,–
Cn1ccc2c(c(-c3cc(F)cc(F)c3)nc3[nH]nc(N)c32)c1=O [Compound 45],1000 to 10000,–,–
CC(=O)Oc1ccc(-c2nc3c(c(C)nn3C(C)=O)c3c2c(=O)[nH]c2cc(N4CCNCC4)ccc23)cc1 [Compound 49],< 100,–,–
CCOC(=O)Oc1ccc(-c2nc3c(c(C)nn3C(=O)OCC)c3c2c(=O)[nH]c2cc(N4CCN(C(=O)OCC)CC4)ccc23)cc1 [Compound 48],1000 to 10000,–,–

SMILES,IC50 (ALK; [1]) [nM],IC50 (Karpas 299 cells) [nM],IC50 (ALK; [2]) [nM]
Cc1n[nH]c2nc(-c3ccc(O)cc3)c3c(=O)[nH]c4cc(N5CCNCC5)ccc4c3c12 [Compound 04],< 100,–,–
Cc1n[nH]c2nc(-c3ccc(O)cc3)c3c(=O)[nH]c4cc(N5CCC(N)CC5)ccc4c3c12 [Compound 18],< 100,–,–
COc1ccc(-c2nc3[nH]nc(C)c3c3c2c(=O)oc2ccccc23)cc1 [Compound 08],1000 to 10000,–,–
Cc1n[nH]c2nc(-c3cc(F)cc(F)c3)c3c(=O)[nH]c4cc(N5CCNCC5)ccc4c3c12 [Compound 31],1000 to 10000,–,–
CCn1c(=O)c2c(-c3cc(F)cc(F)c3)nc3[nH]nc(N)c3c2c2ccc(N3CCNCC3)cc21 [Compound 55],100 to 1000,–,–
Cc1nn(C(=O)OC(C)(C)C)c2nc(-c3ccc(OC(=O)C(C)(C)C)cc3)c3c(=O)[nH]c4cc(N5CCN(C(=O)OC(C)(C)C)CC5)ccc4c3c12 [Compound 50],100 to 1000,–,–
Cc1n[nH]c2nc(-c3ccc(O)cc3)c3c(=O)[nH]c4cc(OCCCN5CCNCC5)ccc4c3c12 [Compound 13],< 100,–,–
Nc1n[nH]c2nc(-c3cc(F)cc(F)c3)c3c(=O)[nH]c4cc(N5CCNCC5)ccc4c3c12 [Compound 36],1000 to 10000,–,–
O=C1c2cc(N3CCNCC3)ccc2-c2c1c(-c1c(F)ccc(F)c1F)nc1[nH]nc(-c3cccs3)c21 [Compound 03],1000 to 10000,–,–
Cc1n[nH]c2nc(-c3ccc(O)cc3)c3c(=O)[nH]c4cc(N5CCN(C6CCN(C)CC6)CC5)ccc4c3c12 [Compound 21],< 100,–,–
O=c1[nH]c2cc(N3CCNCC3)ccc2c2c1c(-c1ccc(O)cc1)nc1[nH]nc(-c3ccco3)c12 [Compound 16],< 100,–,–
COc1ccc(-c2nc3[nH]nc(N)c3c3c2c(=O)[nH]c2ccc(N4CCNCC4)cc23)cc1 [Compound 22],1000 to 10000,–,–
COc1ccc(-c2nc3[nH]nc(N)c3c3c2c(=O)[nH]c2cc(N4CCNCC4)ccc23)cc1 [Compound 51],< 100,–,–
Cc1n[nH]c2nc(-c3ccc(O)cc3)c3c(=O)n(CCCN(C)C)c4ccccc4c3c12 [Compound 07],< 100,–,–
CC(=O)Oc1ccc(-c2nc3[nH]nc(C)c3c3c2c(=O)[nH]c2cc(N4CCNCC4)ccc23)cc1 [Compound 17],< 100,–,–
Cc1n[nH]c2nc(-c3ccc(O)cc3)c3c(=O)n(CCCN4CC[C@@H](N)C4)c4ccccc4c3c12 [Compound 14],< 100,–,–
CCOc1nc2cc(N3CCNCC3)ccc2c2c1c(-c1ccc(O)c(C(F)(F)F)c1)nc1[nH]nc(C)c12 [Compound 47],100 to 1000,–,–
